According to patent publication EP0778266A1, “5-Amino-6-cyclohexyl-4-hydroxy-hexanamide derivatives as inhibitors of beta-amyloid protein production” (BRISTOL-MYERS SQUIBB COMPANY, priority 1995, dated 1997):

Test system: γ-Secretase
Experiment: Cell-based ELISA assay of β-AP production by transfected H4 cells expressing β-APP (Swedish variant); reported as inhibition of γ-secretase
Conditions: β-AP in conditioned medium of transfected H4 (human neuroglioma) cells by ELISA, approximately 16 hours incubation, dose response
From the text: Production and detection of β-AP made by cells in culture. The use of transfected H4 (human neuroglioma) cells stably expressing constructs containing wild-type and mutant forms of β-APP have been used to identify inhibitors of β-AP production. The Swedish variant of β-APP produces 5-7 fold more β-AP than the wild type and is typically used due to its enhanced signal. […] The capture antibody is typically a mouse monoclonal (lgG1/kβ-APPa). The antibody recognizes the carboxyl terminal epitope of β-AP. The specificity of the capture antibody ensures measurement of β-AP without interference by other secreted β-APP fragments that share amino acid sequence (β-AP1-16) with β-AP. […] In the cell-based assay conditioned medium from H4 cells is tested by ELISA for the quantity of β-AP present. […]
A typical ELISA-based assay requires plating of the transfected cells at a density sufficient for the rapid detection of the secreted β-AP (experimentally predetermined for a particular stable cell population) in a 96-well format. […] Incubation of the cells with the test agent will continue for approximately 16 hours at which time equal aliquots of media from each sample well is removed and placed into a previously prepared ELISA plate for β-AP quantitation. The ELISA is carried out in a manner described by others (Haass, et al., 1992; Hawlow and Lane, 1988) and the β-AP signal quantitated. […]

[αS-(αR*, γR*, δR*)] N-(2,2-dimethylpropyl)-γ-hydroxy-α-(1-methylethyl)-δ-[(4-methylpentyl)amino]cyclohexanehexanamide hydrochloride. [Example 31]
Activity Rating: +++ (+++ ⇐ 10)
